Data set [1] in a line: Comparative dissolution test. The class given is physicochemical. The note with it: 900 ml 1% sodium lauryl sulfate, paddle 75 rpm, HPLC-UV. The protocol: A comparative dissolution test was performed on the compositions prepared by Examples 1 to 3 and on the compositions prepared by Comparative Examples 1 and 2.
Data set [2] in a line: Oily leakage test using SD-rat model. In kind it is in vivo. As to conditions: of 26 SD-rats; 0.5 ml olive oil, oral 5 mg orlistat per kg, 6 hours later. On the procedure:
7-week old SD-rats were used, 0.5 ml of an olive oil was administered for each group, and a drug was suspended in a 0.25% HPMC solution to be orally administered to the rats (corresponds to 5 mg of orlistat per kg of the body weight). 6 hours later, the evaluation was assessed through the number of rats having oily leakage from their anuses.

The test system of data set [3] is triglyceride levels in blood. The data set is described as follows: Measurement of triglyceride levels in blood by using SD-rat model. The class given is in vivo. As to conditions: SD-rats, oral 2.5 mg orlistat per kg. On the procedure: Using 7-week old SD-rats (Samtaco Bio Korea Inc.), 1 ml of an olive oil (Samchun Pure Chemical Co., Ltd., Korea) was administered to each group and a drug suspended in a 0.25% HPMC (hydroxypropylmethyl cellulose) solution (Shin-Etsu chemical, Japan) was orally administered to the rats (corresponds to 2.5 mg of orlistat per kg of the body weight). The control group was administered with distilled water instead of the drug suspension. The blood of rats was collected for a fixed time interval, the triglyceride levels in the blood were measured by Cleantech TG-S of Asan Pharmaceutical, and, with the triglyceride level in the blood before testing used as a standard, changes in triglyceride levels in the blood after administration of an olive oil and drugs were plotted in FIG. 4 and Table 4.

Turning to `CCCCCCCCCCC[C@@H](C[C@@H]1OC(=O)[C@H]1CCCCCC)OC(=O)[C@H](CC(C)C)NC=O` [Comparative Example 1, orlistat], in data set [1] (Table 1), the “Dissolution rate at 10 minutes” value is on record as 7.0%. Also, the “Dissolution rate at 10 minutes” value in data set [1] (Table 3, various porous adsorbents) came out at 7.0%. In data set [2], the “Population having oily leakage” value is 17 rats. Besides, in data set [3] (1 ml olive oil), the “AUC0->12 h (triglyceride level in blood)” value stood at 648.0 ± 203.2 mg·h/dL and the “Cmax (triglyceride level in blood)” value stood at 140.7 ± 64.1 mg/dL. The “Triglyceride level in blood (words, FIG. 4)” value in data set [3] (olive oil) was “did not show an increase”.

The values above are taken from patent publication US20160022818A1, “PHARMACEUTICAL FORMULATION COMPRISING LIPASE INHIBITOR HAVING INCREASED DISSOLUTION RATE AND REDUCED SIDE EFFECTS, AND METHOD FOR PREPARING SAME” (UNIVERSITY-INDUSTRY FOUNDATION, YONSEI UNIVERSITY, priority 2013, published 2016).
